Entries after “also recorded” stand apart in the source; their conditions may differ. Read-outs that look alike come from different tables or passages of the source. Where no end group is shown, it is not given here.
How the values were obtained:
[1] = system: mAb7 binding to CD9 expressed on CHO A6 cells; assay: Flow cytometry: peptide blocking of mAb7 binding to CD9 on CHO A6 cells; set-up: species or system human; settings: 100 μg peptide with 1 μg mAb7
Protocol: 100 μg of peptide 5a, 5, 5b, or 6a was incubated with 1 μg mAb7 for 30 minutes at room temperature. CD9 CHO cells (clone A6) were harvested, washed twice with PBS, and resuspended in labeling media (2.5×10^5 cells/mL); 4 μL mAb7-peptide solution was added to 2.5×10^5 cells and incubated for 1 hour at 4° C. MOPC2, and mAb7 alone were used as negative and positive controls, respectively. Cells were washed with PBS, resuspended in labeling media, and bound mAb7 was detected with a species-specific FITC-conjugated second antibody, followed by flow cytometry as described above.

[2] = system: CHO A6 cells; assay: Basic adhesion assay of CHO A6 cells on FN; type: cell-based; settings: 0.5 μM peptide, 3 hours
Protocol: 24-well culture plate wells were coated with human plasma FN (10 μg/mL FN in PBS for 3 hours at 37° C.) and blocked with PBS, 3% bovine serum albumin (BSA) for 1 hour at 37° C. Mock- and CD9-CHO cells were harvested as described previously. After a 30-minute rest period at 37° C., 10^5 cells/well were seeded in FN-coated 24-well plates and incubated for 3 hours at 37° C. For some experiments, cells were incubated in the presence of 0.5 μM of peptides corresponding to amino acid sequences of CD9 EC2. Wells were washed 4 times with adhesion media, stained with modified Wright Giemsa, and adherent cells were counted in five randomly selected high-power fields of view per well using an inverted phase contrast microscope, Olympus IMT-2 (Olympus, Lake Success, N.Y.). All assays were run in triplicate, and the cell counts were reported as the number of adherent cells/mm^2 of well surface area. The mean number of adherent cells/mm^2±SE of 3 independent assays were reported (n=45).

[3] = molecular target: FN; assay: ELISA for fibronectin binding to immobilized CD9, His6-rCD9 or peptide; set-up: species or system human; settings: for soluble FN binding to immobilized peptide compared to intact platelet purified CD9: FN 75 μg/ml
Protocol: (§1) All incubation periods for the CD9/FN binding ELISA lasted two hours at RT unless otherwise indicated. Immulon I (Dynatech) microtiter plate wells were coated with CD9 (2 μg/ml), His6-rCD9 (2 μg/ml), BSA (10 μg/ml), or peptide (10 μM) in Buffer A. After one wash with Buffer B, plates were blocked with Blocking Buffer 1.1% BSA was included in steps from ligand overlay to addition of mAb conjugate to minimize non-specific binding. Titrations of human plasma FN in Buffer B were added to plates either alone, or in the case of competition ELISAs, with 0-160 μM synthetic peptide. Plates were washed three times with ELISA Buffer B, followed by incubation with a 1/1000 dilution of rabbit anti-FN antibody. After two washes with Buffer B and one wash with Buffer C, plates were incubated with 1/500 antirabbit IgG alkaline phosphatase in Buffer C for one hour at RT. After four washes with Buffer C, 1 mg/mlp-nitrophenyl phosphate substrate was added and the absorbance at 405 nm was recorded.

[4] = system: human coronary SMCs; assay: Verification that hydroxyurea prevents SMC proliferation (thymidine incorporation); type: cell-based; settings: 5 mM hydroxyurea
Protocol: (§2) Cell migration was measured via a monolayer-wounding assay, as described by Brown et al. (Circ Res. 84:655-667 (1999), which is hereby incorporated by reference in its entirety). Briefly, 100% confluent cells were treated with serum-free medium containing hydroxyurea (5 mM)(DMEM supplemented with 100 U/mL penicillin, 100 μg/mL streptomycin and 5 mM hydroxyurea) for 24 h before the start of experiments. Hydroxyurea was used to prevent cell proliferation and block the possible effect of CD9 on SMCs proliferation. The capacity of hydroxyurea to prevent proliferation was verified by showing that it inhibited thymidine incorporation by >99%. After incubation with hydroxyurea, cells were rinsed with DMEM (serum free), and a ≈1 mm wide scratch was made with a sterile 20 ul tip with the help of a ruler. After that, the cells were incubated in the DMEM medium. […] Plates were rinsed twice with PBS, and analyzed via computerized image analysis system (scion Image CMS-800). Cell migration was expressed as the distance migrated in the 24 hours (Chang et al., Circ. Res. 91(5):390-397 (2002), which is hereby incorporated by reference in its entirety). […]

[5] = molecular target: FN (Homo sapiens, UniProt P02751); assay: Surface plasmon resonance biosensor analysis of FN captured by anti-FN mAbs; type: binding
[6] = system: FN/CD9 interaction; assay: ELISA modified for effects of metal salts on the FN/CD9 interaction; type: binding, human; settings: 0-4.5 mM metal salt
Protocol: The standard ELISA assay format was modified to evaluate the effects of divalent and monovalent metal salts on the FN/CD9 interaction. The ELISA buffers contained 0.5 mM EGTA and metal salt was excluded from antigen plating and primary wash step. Antigen was plated in Buffer D. The plates were washed once with Buffer E and then blocked with Blocking Buffer 2. Subsequent steps up to and including the second wash after the FN overlay were done in Buffer F, which contained 0-4.5 mM metal salt. After the FN overlay, plates were washed once with Buffer F (+/−metal salt), then twice with Buffer G. The subsequent incubations and washes were performed with Buffer G.

[7] = system: CD9-CHO-B2 cells; assay: Adhesion of CD9-CHO-B2 cells (lacking integrin α5β1) to FN, peptide inhibition; type: cell-based; settings: peptide 0.5 μM
Protocol: CHO cell adhesion assays were done as described by Cook et al. (Exp. Cell. Res. 251:356-371 (1999), which is hereby incorporated by reference in its entirety). Briefly, 24-well cell culture plates (Coming, Acton, Mass.) were coated with FN (10 μg/ml) and blocked with PBS, 3% BSA. CHO cells were cell synchronized, harvested, and resuspended at 1×10^5 cell/ml in adhesion media (RPMI, 1% BSA). For peptide inhibition studies, peptides were added to CHO cell suspension to give a final concentration of 0.5 μM and cells were incubated at 37° C. for 30 minutes. 1 ml CHO cell suspension was added to each well and CHO cells were allowed to adhere for either 3 or 6 hours, then adherent cells were stained with Wright Giemsa and counted.

[8] = system: CD9-CHO cells; type: cell-based; settings: FN coated inserts blocked with peptide (0.5 μM)
Protocol: The motility assays were performed using two methodologies. The first method was modified from Bauer et al. (J. Cell. Biol. 116:477-487 (1992), which is hereby incorporated by reference in its entirety). Cell cycle synchronized CHO cells were seeded into tissue culture plates, grown to approximately 50% confluency, and harvested. The cells were washed twice with Media A, adjusted to 4×10^5/ml, allowed to rest at 37° C. for 30 min in Media B, then transferred into modified Boyden chambers. The upper and lower chambers were separated by a polycarbonate filter, with 8 μm pores, pre-coated on the underside only with 10 μg/ml FN. After 3 or 6 hours, cells on the FN-coated side of the filters were fixed, stained with hematoxylin, and mounted onto slides. The total numbers of adherent cells from five high-powered fields (HPF) per filter were counted per time point per assay. The second method for assessing the motility of CD9-transfected CHO cells utilized 10 mm polycarbonate tissue culture inserts with 8 μm pores (Nunc, Rochester, N.Y.). Tissue culture inserts were coated on the underside with FN as described above for Boyden Chambers. […] CHO cells adhered to the FN-coated underside of tissue culture inserts were stained with Wrights Giemsa and the number of adherent cells in five random high power fields were counted per time point per assay. […]

[9] = system: human coronary SMCs; assay: SMC migration, monolayer-wounding assay; type: cell-based; settings: 2% serum, 24 h
Protocol: as §2

[10] = system: FN-CD9 binding; assay: Competition ELISA: effect of peptides on FN binding to immobilized CD9; set-up: species or system human
Protocol: as §1

[11] = FN concentration, 2.5 mM Ca2+, read-out: half maximal binding with FN

Sequence of FN (Homo sapiens, UniProt P02751) (P02751 32-2477): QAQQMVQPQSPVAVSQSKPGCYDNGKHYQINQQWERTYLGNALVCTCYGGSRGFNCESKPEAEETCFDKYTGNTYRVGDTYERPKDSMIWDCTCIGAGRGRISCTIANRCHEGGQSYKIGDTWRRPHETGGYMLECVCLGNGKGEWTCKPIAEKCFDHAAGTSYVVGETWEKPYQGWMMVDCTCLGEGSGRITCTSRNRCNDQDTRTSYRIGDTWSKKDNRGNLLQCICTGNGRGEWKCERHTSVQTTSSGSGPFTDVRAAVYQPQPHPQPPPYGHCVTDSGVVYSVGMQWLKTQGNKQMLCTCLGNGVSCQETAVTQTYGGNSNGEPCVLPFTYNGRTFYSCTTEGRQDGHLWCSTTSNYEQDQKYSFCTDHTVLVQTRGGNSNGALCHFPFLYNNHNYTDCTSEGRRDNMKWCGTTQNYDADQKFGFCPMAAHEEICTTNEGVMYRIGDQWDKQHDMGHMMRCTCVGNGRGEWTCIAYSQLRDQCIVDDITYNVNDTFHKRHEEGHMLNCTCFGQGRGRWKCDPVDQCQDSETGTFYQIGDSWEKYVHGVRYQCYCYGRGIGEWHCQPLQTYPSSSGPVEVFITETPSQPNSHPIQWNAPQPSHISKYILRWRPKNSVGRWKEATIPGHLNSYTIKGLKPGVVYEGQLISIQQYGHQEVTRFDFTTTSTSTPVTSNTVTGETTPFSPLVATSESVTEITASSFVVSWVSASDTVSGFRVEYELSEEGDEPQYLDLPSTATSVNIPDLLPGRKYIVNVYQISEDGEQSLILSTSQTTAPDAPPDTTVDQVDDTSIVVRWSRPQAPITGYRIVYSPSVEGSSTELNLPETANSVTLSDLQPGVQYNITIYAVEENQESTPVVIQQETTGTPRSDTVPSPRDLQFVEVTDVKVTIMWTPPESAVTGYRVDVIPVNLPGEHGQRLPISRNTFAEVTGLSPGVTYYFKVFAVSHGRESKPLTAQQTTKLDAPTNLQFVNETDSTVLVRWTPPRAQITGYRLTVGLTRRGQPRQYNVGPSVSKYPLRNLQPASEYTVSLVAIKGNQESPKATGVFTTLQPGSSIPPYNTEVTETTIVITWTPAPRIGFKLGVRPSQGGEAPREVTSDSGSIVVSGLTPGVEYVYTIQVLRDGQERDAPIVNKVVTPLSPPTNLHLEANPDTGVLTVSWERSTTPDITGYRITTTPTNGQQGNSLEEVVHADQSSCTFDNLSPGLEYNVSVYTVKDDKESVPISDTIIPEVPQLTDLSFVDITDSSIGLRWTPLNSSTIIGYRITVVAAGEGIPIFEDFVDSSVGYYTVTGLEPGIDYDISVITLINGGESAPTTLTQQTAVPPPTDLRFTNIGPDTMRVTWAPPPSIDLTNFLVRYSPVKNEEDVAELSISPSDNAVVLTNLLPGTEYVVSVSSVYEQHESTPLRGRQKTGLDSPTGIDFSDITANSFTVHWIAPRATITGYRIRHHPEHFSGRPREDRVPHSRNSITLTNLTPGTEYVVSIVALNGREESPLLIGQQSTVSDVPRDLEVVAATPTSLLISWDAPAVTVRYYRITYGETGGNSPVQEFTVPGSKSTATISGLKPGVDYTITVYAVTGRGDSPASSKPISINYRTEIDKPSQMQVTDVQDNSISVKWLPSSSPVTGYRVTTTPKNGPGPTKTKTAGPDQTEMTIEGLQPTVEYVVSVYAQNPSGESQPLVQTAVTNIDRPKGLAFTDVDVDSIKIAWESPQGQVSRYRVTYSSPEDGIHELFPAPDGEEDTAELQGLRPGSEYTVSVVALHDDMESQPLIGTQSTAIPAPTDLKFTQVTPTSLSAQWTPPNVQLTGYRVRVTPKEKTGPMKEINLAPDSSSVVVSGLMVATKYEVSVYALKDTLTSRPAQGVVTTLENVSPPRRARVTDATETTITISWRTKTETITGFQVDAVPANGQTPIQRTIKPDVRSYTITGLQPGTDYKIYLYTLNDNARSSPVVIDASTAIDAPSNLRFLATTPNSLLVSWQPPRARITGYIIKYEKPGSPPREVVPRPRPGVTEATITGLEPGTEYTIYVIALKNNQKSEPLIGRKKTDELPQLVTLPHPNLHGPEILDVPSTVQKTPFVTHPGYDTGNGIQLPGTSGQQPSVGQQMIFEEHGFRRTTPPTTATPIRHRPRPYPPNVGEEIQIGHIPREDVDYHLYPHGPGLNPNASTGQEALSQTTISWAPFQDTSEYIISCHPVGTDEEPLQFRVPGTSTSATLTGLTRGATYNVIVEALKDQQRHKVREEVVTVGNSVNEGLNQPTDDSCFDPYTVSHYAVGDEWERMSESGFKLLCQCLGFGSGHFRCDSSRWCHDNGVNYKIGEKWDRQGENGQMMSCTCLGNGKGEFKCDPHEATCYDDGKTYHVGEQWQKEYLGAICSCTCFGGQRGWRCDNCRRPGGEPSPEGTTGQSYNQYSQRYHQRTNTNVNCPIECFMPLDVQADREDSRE

In the case of “KDEPQRETLKAIHYALNCCGLAGGVEQFISDICPKKDV [peptide 5b]”, the “blocking of mAb7 binding to cell surface CD9” value (“blocking of mAb7 binding” below) [1] is reported as “blocked mAb7 binding to soluble CD9 and to CD9 on intact cells” and the “effect on adhesive phenotype of CHO A6 cells on FN” value (from here on “effect on adhesive phenotype”) [2] is reported as “equivalent to that of CHO MOCK cells; also recorded: reversed the adhesive phenotype; also recorded: reversed the inhibitory influence of CD9”.
In the case of “His6-rCD9: bacterially expressed histidine tagged recombinant CD9”, the EC50 [3, 11] is reported as 0.12 µM and the “binding to FN lower than for purified CD9 (absolute ELISA values)” value ([3]; versus purified platelet CD9) is reported as 40%.
For `NC(=O)NO` [hydroxyurea], the inhibition at 5000 µM [4] was > 99%.
For “CD9: purified platelet CD9, 24 kDa integral membrane glycoprotein (SEQ ID NO: 1)”, the “association between captured FN and purified CD9” value [5] was “specific association”, the “half-maximal binding of soluble FN to immobilized CD9” value ([3]; 2.5 mM CaCl2, FN concentration) was 35.6 µg/mL and the EC50 ([3]; 2.5 mM CaCl2, FN concentration, read-out: half-maximal binding of soluble FN to immobilized CD9) was 0.081 µM. For the same molecule, the EC50 [3, 11] was 0.081 µM and the Kd ([3]; platelet-derived or recombinant CD9, read-out: affinity of FN-CD9 interaction) was 0.08 µM.
In the case of `[Ca+2].[Cl-].[Cl-]` [CaCl2], the “effect of cation on CD9/FN interaction” value [6] is reported as “stimulated”.
With YSHKDEVIKEVQEFYKDTYNKLKT [peptide 5a] the “blocking of mAb7 binding” value [1] was “neither peptide 5a nor 5 blocked”.
With “KEFDFKAPSVCKVEDIDTKTL [peptide 6S, reference compound]” the “effect on CD9-CHO-B2 cell adhesion to FN” value [7] was “no significant effect” and the “effect on CD9-mediated CHO cell motility to FN” value [8] was “lack of inhibition”.
For YKDTYNKLKTKDEPQRETLKAI [peptide 5], the “blocking of mAb7 binding” value [1] was “neither peptide 5a nor 5 blocked”, the “effect on adhesive phenotype” value [2] was “no effect” and the “soluble FN binding to immobilized peptide compared to intact platelet purified CD9” value [3] was 19%.
For PKKDVLETFTVKSCPDAI [peptide 6a], the “blocking of mAb7 binding” value [1] was “blocked mAb7 binding” and the “effect on adhesive phenotype” value [2] was “equivalent to that of CHO MOCK cells; also recorded: reversed the inhibitory influence of CD9”.
In the case of PKKDVLETFTVKSCPDAIKEVFDNK [peptide 6], the “effect on CD9-CHO-B2 cell adhesion to FN” value [7] is reported as “able to block”, the “effect on CD9-CHO-B2 cell adhesion to FN” value ([7]; listed as Peptide 6) is reported as “inhibited the adhesion level of CD9-CHO-B2 cells on FN to that seen with Mock-CHO-B2 cells” and the “effect on CD9-mediated CHO cell motility to FN” value [8] is reported as “competitively inhibited”. For the same molecule, the “blocking of mAb7 binding” value [1] was “blocked mAb7 binding to soluble CD9 and to CD9 on intact cells”, the “effect on adhesive phenotype” value [2] was “reversed the adhesive phenotype” and the “direct binding of FN” value [3] was “binds directly”. The “soluble FN binding to immobilized peptide compared to intact platelet purified CD9” value [3] was 65%, the “effect on SMC migration” value [9] was “dose dependent inhibitory effect” and the “maximal inhibitory effect on serum-induced migration” value ([9]; at 40 μM) was ~65%. For the same molecule, the “inhibition of FN binding to CD9” value ([10]; peptide 0-160 μM) was “significantly inhibited; also recorded: competitively inhibited binding of FN to purified CD9 in a dose-dependent fashion; also recorded: partially inhibited” and the “peptide concentration at maximal inhibition of FN binding to CD9” value ([10]; titration 0-160 μM) was 60 µM.
